# Measured values: article PMC4965013, “Open Source Drug Discovery with the Malaria Box Compound Collection for Neglected Diseases and Beyond” (PLoS Pathogens, 2016)
# Key:
# [1] = test system: P. falciparum; assay: EC50 listed in S2 Table Metabolomics (used to set the concentration tested); type: cell-based; conditions: Plasmodium falciparum; EC50 used for Factor_XEC50 in metabolomics; read-out: EC50_nM
# [2] = test system: P. falciparum 3D7 trophozoites; assay: Metabolomic fingerprint profiling LC-MS; type: cell-based, Plasmodium falciparum; set-up: UDP-D-glucose / ADP-D-glucose: unit not given here; conditions: for Acetyllysine / N-acetyl-L-ornithine / N-carbamoyl-L-aspartate / NADPH / dAMP / dCMP / dTDP / dTMP / dTTP / dihydroorotate / orotate / DLH / DLS/SDL/SID / PD / PEE / PVNF / 3-phosphoglycerate / ADP-D-glucose / ATP / CDP / D-sedoheptulose-1/7-phosphate / FAD / GMP / NAD+ / NADP+ / Octoluse Bisphosphate / Pyroglutamic acid / UDP-D-glucose / UDP-D-glucuronate / UDP-N-acetyl-glucosamine / UDP / UMP / UTP / a-ketoglutarate / citrate/isocitrate / cytidine / dATP / dGMP/AMP / fumarate / glucose-1/6-phosphate / glycerate / guanine / guanosine / hypoxanthine / indole / inosine / nicotinate / ornithine / phosphoenolpyruvate / pyruvate / ribose-phosphate / sarcosine/alanine / sn-glycerol-3-phosphate / succinate/methylmalonic acid / uridine / xanthosine: S2 Table Metabolomics; for Acetyllysine: metabolite Acetyllysine; for N-acetyl-L-ornithine: metabolite N-acetyl-L-ornithine; for N-carbamoyl-L-aspartate: metabolite N-carbamoyl-L-aspartate; for NADPH: metabolite NADPH; for dAMP: metabolite dAMP; for dCMP: metabolite dCMP; for dTDP: metabolite dTDP; for dTMP: metabolite dTMP; for dTTP: metabolite dTTP; for dihydroorotate: metabolite dihydroorotate; for orotate: metabolite orotate; for DLH: peptide DLH; for DLS/SDL/SID: peptide DLS/SDL/SID; for PD: peptide PD; for PEE: peptide PEE; for PVNF: peptide PVNF; for 3-phosphoglycerate: metabolite 3-phosphoglycerate; for ADP-D-glucose: metabolite ADP-D-glucose; for ATP: metabolite ATP; for CDP: metabolite CDP; for CDP / D-sedoheptulose-1/7-phosphate / GMP / Octoluse Bisphosphate / UDP / UMP / UTP / citrate/isocitrate / dGMP/AMP / fumarate / glucose-1/6-phosphate / glycerate / guanine / guanosine / inosine / pyruvate / sarcosine/alanine / succinate/methylmalonic acid / uridine / xanthosine: change in metabolite level after compound treatment; for D-sedoheptulose-1/7-phosphate: metabolite D-sedoheptulose-1/7-phosphate; for FAD: metabolite FAD; for GMP: metabolite GMP; for NAD+: metabolite NAD+; for NADP+: metabolite NADP+; for Octoluse Bisphosphate: metabolite Octoluse Bisphosphate; for Pyroglutamic acid: metabolite Pyroglutamic acid; for UDP-D-glucose: metabolite UDP-D-glucose; for UDP-D-glucuronate: metabolite UDP-D-glucuronate; for UDP-N-acetyl-glucosamine: metabolite UDP-N-acetyl-glucosamine; for UDP: metabolite UDP; for UMP: metabolite UMP; for UTP: metabolite UTP; for a-ketoglutarate: metabolite a-ketoglutarate; for citrate/isocitrate: metabolite citrate/isocitrate; for cytidine: metabolite cytidine; for dATP: metabolite dATP; for dGMP/AMP: metabolite dGMP/AMP; for fumarate: metabolite fumarate; for glucose-1/6-phosphate: metabolite glucose-1/6-phosphate; for glycerate: metabolite glycerate; for guanine: metabolite guanine; for guanosine: metabolite guanosine; for hypoxanthine: metabolite hypoxanthine; for indole: metabolite indole; for inosine: metabolite inosine; for 2_3-Diphosphoglyceric acid / 4-phosphopantothenate / 6-phospho-D-gluconate / FMN / IMP / Pyrophosphate / Sedoheptoluse bisphosphate / cyclic-AMP / glutathione disulfide / lactate / myo-inositol: metabolite level change after treatment; for nicotinate: metabolite nicotinate; for ornithine: metabolite ornithine; for phosphoenolpyruvate: metabolite phosphoenolpyruvate; for pyruvate: metabolite pyruvate; for ribose-phosphate: metabolite ribose-phosphate; for sarcosine/alanine: metabolite sarcosine/alanine; for sn-glycerol-3-phosphate: metabolite sn-glycerol-3-phosphate; for succinate/methylmalonic acid: metabolite succinate/methylmalonic acid; for uridine: metabolite uridine; for xanthosine: metabolite xanthosine
smiles,measurement,setting,value
COc1ccc(-c2cc3c(SCC(=O)Nc4cc(C(F)(F)F)ccc4Cl)nccn3n2)cc1 [MMV396679],EC50,[1],89.9 nM
same,Acetyllysine,[2],-0.1115
same,N-acetyl-L-ornithine,[2],-0.02651
same,N-carbamoyl-L-aspartate,[2],3.992
same,NADPH,[2],0.255
same,dAMP,[2],0.01076
same,dCMP,[2],-0.01731
same,dTDP,[2],-0.9721
same,dTMP,[2],-0.9985
same,dTTP,[2],-1.02
same,dihydroorotate,[2],4.797
same,orotate,[2],0.864
same,DLH,[2],-0.2125
same,DLS/SDL/SID,[2],-0.04913
same,PD,[2],-0.04215
same,PEE,[2],-0.3501
same,PVNF,[2],-0.2936
same,3-phosphoglycerate,[2],-0.0577
same,ADP-D-glucose,[2],-0.06603
same,ATP,[2],0.1822
same,CDP,[2],-0.644
same,D-sedoheptulose-1/7-phosphate,[2],0.2024
same,FAD,[2],0.03763
same,GMP,[2],0.3849
same,NAD+,[2],-0.01439
same,NADP+,[2],-0.06317
same,Octoluse Bisphosphate,[2],-0.02018
same,Pyroglutamic acid,[2],0.2933
same,UDP-D-glucose,[2],-0.1121
same,UDP-D-glucuronate,[2],-0.02141
same,UDP-N-acetyl-glucosamine,[2],-0.3213
same,UDP,[2],-1.37
same,UMP,[2],-0.7971
same,UTP,[2],-1.261
same,a-ketoglutarate,[2],0.1314
same,citrate/isocitrate,[2],0.05797
same,cytidine,[2],0.1643
same,dATP,[2],0.3792
same,dGMP/AMP,[2],-0.06069
same,fumarate,[2],-0.2305
same,glucose-1/6-phosphate,[2],0.5016
same,glycerate,[2],0.4143
same,guanine,[2],0.4991
same,guanosine,[2],0.9003
same,hypoxanthine,[2],0.3227
same,indole,[2],0.2561
same,inosine,[2],0.1928
same,2_3-Diphosphoglyceric acid,[2],0.1312
same,4-phosphopantothenate,[2],-0.2367
same,6-phospho-D-gluconate,[2],0.186
same,FMN,[2],-0.2039
same,IMP,[2],-0.06535
same,Pyrophosphate,[2],0.04157
same,Sedoheptoluse bisphosphate,[2],-0.03524
same,cyclic-AMP,[2],-0.06553
same,glutathione disulfide,[2],0.06998
same,lactate,[2],0.2306
same,myo-inositol,[2],0.2632
same,nicotinate,[2],0.2615
same,ornithine,[2],0.183
same,phosphoenolpyruvate,[2],-0.02867
same,pyruvate,[2],-0.158
same,ribose-phosphate,[2],-0.4444
same,sarcosine/alanine,[2],0.1483
same,sn-glycerol-3-phosphate,[2],-0.1937
same,succinate/methylmalonic acid,[2],-0.8703
same,uridine,[2],-0.4231
same,xanthosine,[2],0.3074
Cc1ccc(Nc2nc(NCCO)c3ccccc3n2)cc1C [MMV001038],EC50,[1],428 nM
same,Acetyllysine,[2],-1.736
same,N-acetyl-L-ornithine,[2],-0.8338
same,N-carbamoyl-L-aspartate,[2],2.2667
same,NADPH,[2],1.133
same,dAMP,[2],0.6638
same,dCMP,[2],-0.6324
same,dTDP,[2],0.5044
same,dTMP,[2],1.028
same,dTTP,[2],-1.24
same,dihydroorotate,[2],2.22
same,orotate,[2],-0.01519
same,DLH,[2],-3.038
same,DLS/SDL/SID,[2],-1.162
same,PD,[2],-0.2116
same,PEE,[2],-5.814
same,PVNF,[2],-1.547
same,3-phosphoglycerate,[2],0.5584
same,ADP-D-glucose,[2],0.41
same,ATP,[2],-0.8212
same,CDP,[2],-0.1382
same,D-sedoheptulose-1/7-phosphate,[2],0.3347
same,FAD,[2],0.9327
same,GMP,[2],0.5554
same,NAD+,[2],0.6377
same,NADP+,[2],1.018
same,Octoluse Bisphosphate,[2],0.3963
same,Pyroglutamic acid,[2],-0.8623
same,UDP-D-glucose,[2],0.149
same,UDP-D-glucuronate,[2],0.1087
same,UDP-N-acetyl-glucosamine,[2],0.4035
same,UDP,[2],0.7043
same,UMP,[2],-0.2063
same,UTP,[2],-0.5445
same,a-ketoglutarate,[2],-0.3007
same,citrate/isocitrate,[2],-0.768
same,cytidine,[2],0.3191
same,dATP,[2],-1.248
same,dGMP/AMP,[2],0.4665
same,fumarate,[2],-0.3966
same,glucose-1/6-phosphate,[2],3.518
same,glycerate,[2],0.8355
same,guanine,[2],-0.1055
same,guanosine,[2],-0.4181
same,hypoxanthine,[2],0.2457
same,indole,[2],-0.2391
same,inosine,[2],0.4136
same,2_3-Diphosphoglyceric acid,[2],0.3981
same,4-phosphopantothenate,[2],0.7744
same,6-phospho-D-gluconate,[2],-0.4519
same,FMN,[2],0.7846
same,IMP,[2],0.7773
same,Pyrophosphate,[2],-0.6549
same,Sedoheptoluse bisphosphate,[2],0.6681
same,cyclic-AMP,[2],0.8549
same,glutathione disulfide,[2],0.7162
same,lactate,[2],1.5312
same,myo-inositol,[2],3.154
same,nicotinate,[2],-0.4211
same,ornithine,[2],-0.2093
same,phosphoenolpyruvate,[2],0.02444
same,pyruvate,[2],0.2652
same,ribose-phosphate,[2],0.4889
same,sarcosine/alanine,[2],-0.4284
same,sn-glycerol-3-phosphate,[2],0.01718
same,succinate/methylmalonic acid,[2],-0.401
same,uridine,[2],0.3457
same,xanthosine,[2],-1.776
CC1CCN(Cc2ccc(NC(=O)c3cc4ccc5cccnc5c4[nH]3)cc2)CC1 [MMV020549],EC50,[1],274 nM
same,Acetyllysine,[2],-2.641
same,N-acetyl-L-ornithine,[2],-2.126
same,N-carbamoyl-L-aspartate,[2],2.423
same,NADPH,[2],1.7547
same,dAMP,[2],0.4295
same,dCMP,[2],0.8562
same,dTDP,[2],0.3381
same,dTMP,[2],0.4292
same,dTTP,[2],0.08993
same,dihydroorotate,[2],2.255
same,orotate,[2],1.187
same,DLH,[2],-1.428
same,DLS/SDL/SID,[2],-2.953
same,PD,[2],-0.7061
same,PEE,[2],-0.9939
same,PVNF,[2],-1.512
same,3-phosphoglycerate,[2],-0.1099
same,ADP-D-glucose,[2],0.08948
same,ATP,[2],-0.07943
same,CDP,[2],0.4826
same,D-sedoheptulose-1/7-phosphate,[2],0.04396
same,FAD,[2],-0.01225
same,GMP,[2],-0.01756
same,NAD+,[2],-0.1491
same,NADP+,[2],0.1203
same,Octoluse Bisphosphate,[2],-0.3788
same,Pyroglutamic acid,[2],-0.1503
same,UDP-D-glucose,[2],-0.0815
same,UDP-D-glucuronate,[2],-0.1055
same,UDP-N-acetyl-glucosamine,[2],-0.09535
same,UDP,[2],0.6579
same,UMP,[2],0.21
same,UTP,[2],0.1832
same,a-ketoglutarate,[2],-0.128
same,citrate/isocitrate,[2],-0.1069
same,cytidine,[2],-0.1996
same,dATP,[2],0.1916
same,dGMP/AMP,[2],0.3048
same,fumarate,[2],0.06488
same,glucose-1/6-phosphate,[2],-0.4724
same,glycerate,[2],-0.06488
same,guanine,[2],0.773
same,guanosine,[2],1.397
same,hypoxanthine,[2],-0.1958
same,indole,[2],-0.3017
same,inosine,[2],-0.6136
same,2_3-Diphosphoglyceric acid,[2],-0.02531
same,4-phosphopantothenate,[2],0.1058
same,6-phospho-D-gluconate,[2],-0.03173
same,FMN,[2],0.1472
same,IMP,[2],0.1864
same,Pyrophosphate,[2],0.03595
same,Sedoheptoluse bisphosphate,[2],0.04232
same,cyclic-AMP,[2],-0.09542
same,glutathione disulfide,[2],-0.2786
same,lactate,[2],-0.1188
same,myo-inositol,[2],-0.1919
same,nicotinate,[2],0.02078
same,ornithine,[2],0.04846
same,phosphoenolpyruvate,[2],-0.09349
same,pyruvate,[2],-0.1796
same,ribose-phosphate,[2],-0.1444
same,sarcosine/alanine,[2],-0.25
same,sn-glycerol-3-phosphate,[2],-0.2777
same,succinate/methylmalonic acid,[2],-0.1252
same,uridine,[2],0.147
same,xanthosine,[2],-0.8804
